In publication PMC6421704 (Journal of Experimental & Clinical Cancer Research : CR, 2019):
“Also recorded” adds a separate entry of the source. Read-outs that look alike come from different tables or passages of the source.

Columns and labels:
[1] = Body weight in HepG2 xenograft nude mice model; type: in vivo; settings: Indo5 vs control groups
c-Met signaling pathway = test: HGF-induced c-Met signaling pathway activation in HepG2 cells (Western blot); settings: HepG2, 0.5 μM Indo5, pretreated 2 h, HGF 20 ng/ml 5 min
Experimental: (a) HepG2 cells were treated with HGF (10 ng/ml) alone or HGF (10 ng/ml) and BDNF (10 ng/ml) for the indicated time and the activation of c-Met signaling pathway was examined.
(§3) For western blots, cells were lysed with M-PER? Mammalian Protein Extraction Reagent (Pierce, Rockford, IL, USA). Then, western blot analysis was performed according to standard procedures. Chemiluminescent detection was conducted using supersignal substrate (Pierce) according to the manufacturer’s specifications.

HepG2 cells [2] = test: HepG2 cell proliferation under HGF migration conditions (MTS assay); type: cell-based, human
Experimental: (§1) All experiments were conducted three times.
Figure S2. […] Cell proliferation was anaylzed with MTS assay.

[3] = system: HGF-induced vasculature formation; test: Matrigel plug assay, HGF-induced angiogenesis in vivo; set-up: species or system BALB/c mice; settings: Matrigel plug with HGF (50 ng/ml) and Indo5 (10 μM, 20 μM), 7 days
Experimental: After 7 days, mice were sacrificed and the Matrigel plugs were fixed in 10% buffered formaldehyde, which was embedded in paraffin, and sectioned. The sections were stained with hematoxylin and eosin(H&E). H&E staining was performed to identify the formation and infiltration of new, functional microvessles.

EPHA1 = EPHA1 (Homo sapiens, UniProt P21709); test: In vitro kinase activity assay (HDB Kinase Selectivity Profiling); type: biochemical; settings: Kinase Glo Plus assay format
HepG2 cells [4] = test: BDNF-induced HepG2 cell migration; settings: HepG2, BDNF 50 ng/ml, 24 h
Experimental: (§4) For the migration assay, 2×10^5 cells were seeded on 8µm polycarbonate membrane (Transwell; Costar). […] After 24h migration cells were counted.

InsR = InsR (Homo sapiens, UniProt P06213); test: In vitro kinase activity assay (HDB Kinase Selectivity Profiling); type: biochemical; settings: Kinase Glo Plus assay format
HCC metastasis in lung = test: Lung metastasis in mice bearing MHCC97H orthotopic tumors (H&E); type: in vivo; settings: Indo5 treatment
Ba/F3-Tpr-Met cells [5] = test: cells; settings: Mus musculus, read-out: IC50 of IL-3-independent growth
[6] = system: HepG2 cell line tumor xenografts; test: TUNEL staining of HepG2 tumor xenografts; type: in vivo, nude mice; settings: HepG2 xenograft, Indo5-treated
Half-life in plasma = type: in vitro ADME; settings: data not shown
[7] = Cytotoxicity in non-cancerous cells; type: cell-based; settings: human
mouse hepatocytes = test: HGF-induced proliferation of mouse hepatocytes (MTS assay)
HepG2 cells [8] = test: HGF-induced HepG2 cell migration (Transwell); settings: HepG2, HGF 20 ng/ml, 24 h, dose-dependent
Experimental: as §4

wild-type Ba/F3 cells = test: Proliferation of wild-type Ba/F3 cells
[9] = system: c-Met and TrkB coexpressing cell lines (c-Met^hiTrkB^hi); test: Cell growth of c-Met and TrkB coexpressing cell lines; type: cell-based; settings: Homo sapiens, read-out: IC50 value, range over cell lines
SK-N-SH xenograft = SK-N-SH xenograft mice; type: in vivo
Experimental: (§2) Tumor growth was measured using vernier calipers, and tumor volume (mm^3) was calculated as (L × W × H)/2. When the mean tumor volume reached 200 mm^3, the mice were randomized into four groups and treatment was initiated. Indo5 in DMSO was injected intraperitoneally into the mice once daily at the indicated doses. Tumor volume were recorded every 3 days until the study was terminated. The mice were sacrificed after 21 days of treatment. Solid tumors were excised and weighed, and the inhibition rate was calculated as […].

[10] = system: HepG2 cell line tumor xenografts; test: HepG2 xenograft tumor model in nude mice; type: in vivo; settings: Indo5 16 mg/kg, intraperitoneally once daily, 21 days
Experimental: First, 2 × 10^6 HepG2 cells, 4 × 10^6 MHCC 97H cells, 4 × 10^6MHCC 97 L cells, 2 × 10^6 A549 cells, or 5 × 10^6 SMMC-7721 cells in a volume of 200 μl PBS were inoculated subcutaneously in the right flank of each mouse. Tumor growth was measured using vernier calipers, and tumor volume (mm^3) was calculated as (L × W × H)/2. When the mean tumor volume reached 200 mm^3, the mice were randomized into four groups and treatment was initiated. […] Tumor volume were recorded every 3 days until the study was terminated. The mice were sacrificed after 21 days of treatment.
The inhibition rate was calculated.
The tumor weights were measured, and the inhibition rate was calculated. Data are shown as the mean ± S.D. and are representative of three independent experiments. **p < 0.01, ***p < 0.001

Ba/F3-TrkB cells = test: BDNF-induced growth of TrkB-transfected Ba/F3 cells; settings: BDNF 50 ng/ml 48 h, dose-dependent
Experimental: Cell proliferation was measured and the proliferation index was calculated. […] Data are shown as the mean ± S.D. and are representative of three independent experiments. ** p < 0.01, *** p < 0.001.

TrkA signaling = test: NGF-induced TrkA signaling in SK-N-SH cells (Western blot); settings: 1 μM Indo5, pretreated 2 h, NGF 500 ng/ml 5 min
Experimental: (§5) Data are shown as the mean ± S.D. and are representative of three independent experiments. ** p < 0.01, *** p < 0.001.
as §3

RET = RET (Homo sapiens, UniProt P07949); test: In vitro kinase activity assay (HDB Kinase Selectivity Profiling); type: biochemical; settings: Kinase Glo Plus assay format
EGFR(T790,L858R) = EGFR(T790,L858R) (Homo sapiens, UniProt P00533, L858R/T790M); test: as above; type: biochemical; settings: Kinase Glo Plus assay format
Chain of EGFR(T790,L858R) (P00533 669-1210 T790M/L858R limits assumed): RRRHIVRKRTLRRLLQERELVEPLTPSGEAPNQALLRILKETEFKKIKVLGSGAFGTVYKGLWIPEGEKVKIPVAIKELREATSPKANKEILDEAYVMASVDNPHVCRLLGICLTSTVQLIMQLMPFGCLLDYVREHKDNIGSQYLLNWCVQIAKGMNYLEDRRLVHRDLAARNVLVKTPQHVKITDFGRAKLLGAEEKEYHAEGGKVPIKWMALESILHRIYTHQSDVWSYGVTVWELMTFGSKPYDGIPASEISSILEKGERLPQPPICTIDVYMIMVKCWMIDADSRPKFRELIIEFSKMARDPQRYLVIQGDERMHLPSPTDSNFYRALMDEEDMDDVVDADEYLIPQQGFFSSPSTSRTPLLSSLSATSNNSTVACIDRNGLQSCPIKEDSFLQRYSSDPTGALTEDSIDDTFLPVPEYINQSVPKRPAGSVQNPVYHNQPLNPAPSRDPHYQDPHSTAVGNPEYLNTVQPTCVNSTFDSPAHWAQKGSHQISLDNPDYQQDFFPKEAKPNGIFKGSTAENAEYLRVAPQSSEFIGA

MDCK cells [11] = test: MDCK cell proliferation (MTS assay); type: cell-based, Canine; settings: scattering conditions
Experimental: as §1
Figure S1. […] Cell proliferation was anaylzed with MTS assay.

[12] = system: c-Met^loTrkB^hi and c-Met^loTrkB^lo cells; test: Cell growth of cells expressing TrkB alone or both low; type: cell-based; settings: Homo sapiens, read-out: IC50 value, range over cell lines
TrkB signaling = test: BDNF-induced TrkB signaling in HepG2 cells (Western blot); type: cell-based, human; settings: HepG2, Indo5 pretreated 2 h, BDNF 50 ng/ml 5 min, dose-dependent
Experimental: as §5
(b) HepG2 cells were treated with BDNF (10 ng/ml) alone or BDNF (10 ng/ml) and HGF (10 ng/ml) for the indicated time and the activation of TrkB signaling pathway was examined. […] The activation of the TrkB and c-Met signaling pathways were examined. […] The activation of the TrkB and c-Met signaling pathways were examined. […] Data are shown as the mean ± S.D. and are representative of three independent experiments. **p < 0.01, ***p < 0.001
as §3

[13] = system: EGF receptor-mediated signaling pathway; test: EGF receptor-mediated signaling pathway in A549 cells (Western blot); settings: A549, Indo5 pretreated 2 h, 100 ng/ml EGF 5 min
IGF1R = IGF1R (Homo sapiens, UniProt P08069); test: In vitro kinase activity assay (HDB Kinase Selectivity Profiling); type: biochemical; settings: Kinase Glo Plus assay format
AXL = AXL (Homo sapiens, UniProt P30530); test: as above; type: biochemical; settings: Kinase Glo Plus assay format
Chain of AXL (P30530 26-894): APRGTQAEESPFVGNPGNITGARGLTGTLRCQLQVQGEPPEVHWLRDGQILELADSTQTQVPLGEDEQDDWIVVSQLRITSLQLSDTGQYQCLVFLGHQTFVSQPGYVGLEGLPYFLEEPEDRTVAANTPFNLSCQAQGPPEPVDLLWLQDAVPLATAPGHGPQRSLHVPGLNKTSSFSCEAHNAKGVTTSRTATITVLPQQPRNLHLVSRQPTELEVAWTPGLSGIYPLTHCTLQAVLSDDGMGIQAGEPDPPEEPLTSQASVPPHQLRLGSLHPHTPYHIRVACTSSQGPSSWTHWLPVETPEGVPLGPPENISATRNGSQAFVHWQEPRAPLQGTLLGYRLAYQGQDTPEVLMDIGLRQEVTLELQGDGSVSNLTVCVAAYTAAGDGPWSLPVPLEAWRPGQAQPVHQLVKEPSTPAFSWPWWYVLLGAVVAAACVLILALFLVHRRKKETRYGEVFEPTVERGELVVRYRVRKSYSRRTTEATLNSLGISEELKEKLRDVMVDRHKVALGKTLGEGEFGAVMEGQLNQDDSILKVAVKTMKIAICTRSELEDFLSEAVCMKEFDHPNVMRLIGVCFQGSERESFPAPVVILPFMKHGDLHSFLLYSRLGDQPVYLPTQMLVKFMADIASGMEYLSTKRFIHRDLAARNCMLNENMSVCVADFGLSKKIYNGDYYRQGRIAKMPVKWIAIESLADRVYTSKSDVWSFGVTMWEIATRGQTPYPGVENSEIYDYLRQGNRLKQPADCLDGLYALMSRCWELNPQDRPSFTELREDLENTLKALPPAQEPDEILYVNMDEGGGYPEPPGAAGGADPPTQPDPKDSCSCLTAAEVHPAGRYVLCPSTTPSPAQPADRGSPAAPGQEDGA

C-KIT = C-KIT (Homo sapiens, UniProt P10721); test: In vitro kinase activity assay (Caliper assay format); type: biochemical
MDCK cells [14] = test: HGF-stimulated MDCK cell scattering; settings: Indo5 pretreated 2 h, HGF 20 ng/ml 12 h, dose-dependent
Experimental: Cells were plated into 96-well plates (1.5 × 10^3 cells/well) and grown until small colonies appeared. […] After 24h incubation, cells were fixed with 90% methanol for 30min at room temperature and stained by 1% crystal violet. Scattered clones were photographed.

[15] = system: VEGF receptor-mediated signaling pathway; test: VEGF receptor-mediated signaling pathway in A549 cells (Western blot); settings: A549, Indo5 pretreated 2 h, 100 ng/ml VEGF 5 min
Ba/F3-Tpr-Met cells [16] = settings: 0.5 μM Indo5
SMMC-7721 xenograft = SMMC-7721 xenograft mice; type: in vivo
Experimental: as §2

FGFR1 = FGFR1 (Homo sapiens, UniProt P11362); test: In vitro kinase activity assay (HDB Kinase Selectivity Profiling); type: biochemical; settings: Kinase Glo Plus assay format
Chain of FGFR1 (P11362 22-822): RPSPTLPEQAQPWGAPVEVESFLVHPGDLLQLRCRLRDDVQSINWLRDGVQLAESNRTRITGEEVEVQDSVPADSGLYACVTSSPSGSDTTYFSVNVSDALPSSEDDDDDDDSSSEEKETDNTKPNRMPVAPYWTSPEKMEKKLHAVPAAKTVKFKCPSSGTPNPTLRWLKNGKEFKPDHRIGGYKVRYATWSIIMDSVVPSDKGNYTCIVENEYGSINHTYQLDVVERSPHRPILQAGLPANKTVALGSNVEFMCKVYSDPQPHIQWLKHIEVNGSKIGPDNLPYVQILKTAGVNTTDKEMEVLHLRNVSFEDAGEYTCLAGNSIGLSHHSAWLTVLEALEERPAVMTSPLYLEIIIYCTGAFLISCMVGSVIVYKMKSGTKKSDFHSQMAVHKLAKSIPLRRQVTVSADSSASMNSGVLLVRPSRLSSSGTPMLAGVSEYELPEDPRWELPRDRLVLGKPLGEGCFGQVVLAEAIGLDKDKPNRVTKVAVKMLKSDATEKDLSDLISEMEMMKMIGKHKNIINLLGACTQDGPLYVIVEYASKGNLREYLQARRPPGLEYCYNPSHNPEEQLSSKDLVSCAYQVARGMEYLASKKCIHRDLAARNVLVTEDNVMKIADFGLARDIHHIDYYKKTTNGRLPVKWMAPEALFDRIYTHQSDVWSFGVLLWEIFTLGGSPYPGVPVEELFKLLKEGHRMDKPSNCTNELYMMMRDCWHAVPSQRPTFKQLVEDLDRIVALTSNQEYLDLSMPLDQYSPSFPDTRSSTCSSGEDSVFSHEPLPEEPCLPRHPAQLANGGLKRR

FLT1 = FLT1 (Homo sapiens, UniProt P17948); test: as above; type: biochemical; settings: Kinase Glo Plus assay format
SMMC-7721 = test: Inhibition of cell proliferation (MTS assay); type: cell-based; settings: Homo sapiens, SMMC-7721, c-Met^loTrkB^hi, 72 h
Experimental: as §1

A549 = test: Inhibition of cell proliferation (MTS assay); type: cell-based; settings: Homo sapiens, A549, c-Met^hiTrkB^hi, 72 h
Experimental: as §1

MRC-5 = test: Inhibition of cell proliferation (MTS assay); type: cell-based; settings: Homo sapiens, MRC5, MRC-5, c-Met^loTrkB^lo (non-cancerous cells), 72 h
Experimental: as §1

L02 = test: Inhibition of cell proliferation (MTS assay); type: cell-based; settings: Homo sapiens, L02, c-Met^hiTrkB^lo (non-cancerous cells), 72 h
Experimental: as §1

NCI-H460 = test: Inhibition of cell proliferation (MTS assay); type: cell-based; settings: Homo sapiens, NCI-H460, c-Met^loTrkB^lo, 72 h
Experimental: as §1

HCC-LM3 = test: Inhibition of cell proliferation (MTS assay); type: cell-based; settings: Homo sapiens, HCCLM3, HCC-LM3, c-Met^hiTrkB^hi, 72 h
Experimental: as §1

BEL-7402 = test: Inhibition of cell proliferation (MTS assay); type: cell-based; settings: Homo sapiens, BEL-7402, c-Met^loTrkB^lo, 72 h
Experimental: as §1

SK-N-SH = test: Inhibition of cell proliferation (MTS assay); type: cell-based; settings: Homo sapiens, c-Met^loTrkB^hi, 72 h
Experimental: as §1

[17] = system: MHCC97H orthotopic tumors
From the text: For the orthotopic xenograft mouse model, MHCC97H cells were inoculated subcutaneously in the right flank of each SCID mouse. When the tumor volumes reached approximately 1 cm^3, the mice were sacrificed, and the tumors were isolated and cut into 1 mm^3 pieces. The mice were anesthetized by an intraperitoneal injection of 1% sodium pentobarbital solution. A 1-cm longitudinal skin incision was made on the right upper axillary region of the abdomen of the mouse, the peritoneum was opened and the liver was exposed. The liver was punctured by a needle, and a 1 mm^3 tumor piece was implanted. The liver was put back into the abdominal cavity gently, and the surgical opening was closed using a 5–0 surgical suture.
The tumor weights were measured (b). […] Tumor-bearing mice were sacrificed when they became moribund.

[18] = system: orthotopic HepG2 cell xenografts; test: Orthotopic HepG2 cell xenografts (liver orthotopic mouse model)
PDGFRα = PDGFRα (Homo sapiens, UniProt P16234); test: In vitro kinase activity assay (HDB Kinase Selectivity Profiling); type: biochemical; settings: Kinase Glo Plus assay format
Chain of PDGFRα (P16234 24-1089): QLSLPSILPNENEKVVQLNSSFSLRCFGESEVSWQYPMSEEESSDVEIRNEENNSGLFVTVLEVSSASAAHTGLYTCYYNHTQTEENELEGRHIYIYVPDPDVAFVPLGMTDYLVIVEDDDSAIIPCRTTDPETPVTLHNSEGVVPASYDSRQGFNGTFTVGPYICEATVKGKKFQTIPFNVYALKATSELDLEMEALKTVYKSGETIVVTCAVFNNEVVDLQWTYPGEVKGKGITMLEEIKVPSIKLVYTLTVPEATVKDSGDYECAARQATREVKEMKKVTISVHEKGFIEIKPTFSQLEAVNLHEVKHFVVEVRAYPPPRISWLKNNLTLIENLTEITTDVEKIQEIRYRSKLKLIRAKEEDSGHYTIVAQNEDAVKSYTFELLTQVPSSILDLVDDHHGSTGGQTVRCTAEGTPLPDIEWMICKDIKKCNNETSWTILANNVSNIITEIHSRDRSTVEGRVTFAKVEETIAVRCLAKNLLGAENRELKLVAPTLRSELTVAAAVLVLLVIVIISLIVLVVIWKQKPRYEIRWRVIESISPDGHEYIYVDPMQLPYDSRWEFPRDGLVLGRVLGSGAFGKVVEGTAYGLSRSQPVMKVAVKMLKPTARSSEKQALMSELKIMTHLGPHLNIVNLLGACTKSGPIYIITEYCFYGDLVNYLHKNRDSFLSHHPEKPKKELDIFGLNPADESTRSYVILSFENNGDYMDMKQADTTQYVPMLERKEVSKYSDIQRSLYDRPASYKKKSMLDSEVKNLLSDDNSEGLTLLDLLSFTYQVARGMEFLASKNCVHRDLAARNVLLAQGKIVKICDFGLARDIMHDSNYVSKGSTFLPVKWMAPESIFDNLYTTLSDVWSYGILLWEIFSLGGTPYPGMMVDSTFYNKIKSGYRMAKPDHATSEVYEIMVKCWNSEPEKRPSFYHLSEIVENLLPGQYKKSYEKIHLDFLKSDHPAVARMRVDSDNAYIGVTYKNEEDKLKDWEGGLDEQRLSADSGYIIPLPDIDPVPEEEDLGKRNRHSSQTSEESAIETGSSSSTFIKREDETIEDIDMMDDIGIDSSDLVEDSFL

EGFR = EGFR (Homo sapiens, UniProt P00533); test: as above; type: biochemical; settings: Kinase Glo Plus assay format
C-KIT(v654A) = C-KIT(v654A) (Homo sapiens, UniProt P10721, V654A); test: In vitro kinase activity assay (Caliper assay format); type: biochemical
orthotopic tumors = test: Histological examination of liver from mice bearing orthotopic tumors (H&E); type: in vivo; settings: 48 mg/kg Indo5
From the text: Figure S8. H&E staining of livers from mice bearing orthotopic tumors treated with the vehicle or Indo5.

Ephb1 = Ephb1 (Homo sapiens, UniProt P54762); test: In vitro kinase activity assay (Caliper assay format); type: biochemical
Chain of Ephb1 (P54762 18-984): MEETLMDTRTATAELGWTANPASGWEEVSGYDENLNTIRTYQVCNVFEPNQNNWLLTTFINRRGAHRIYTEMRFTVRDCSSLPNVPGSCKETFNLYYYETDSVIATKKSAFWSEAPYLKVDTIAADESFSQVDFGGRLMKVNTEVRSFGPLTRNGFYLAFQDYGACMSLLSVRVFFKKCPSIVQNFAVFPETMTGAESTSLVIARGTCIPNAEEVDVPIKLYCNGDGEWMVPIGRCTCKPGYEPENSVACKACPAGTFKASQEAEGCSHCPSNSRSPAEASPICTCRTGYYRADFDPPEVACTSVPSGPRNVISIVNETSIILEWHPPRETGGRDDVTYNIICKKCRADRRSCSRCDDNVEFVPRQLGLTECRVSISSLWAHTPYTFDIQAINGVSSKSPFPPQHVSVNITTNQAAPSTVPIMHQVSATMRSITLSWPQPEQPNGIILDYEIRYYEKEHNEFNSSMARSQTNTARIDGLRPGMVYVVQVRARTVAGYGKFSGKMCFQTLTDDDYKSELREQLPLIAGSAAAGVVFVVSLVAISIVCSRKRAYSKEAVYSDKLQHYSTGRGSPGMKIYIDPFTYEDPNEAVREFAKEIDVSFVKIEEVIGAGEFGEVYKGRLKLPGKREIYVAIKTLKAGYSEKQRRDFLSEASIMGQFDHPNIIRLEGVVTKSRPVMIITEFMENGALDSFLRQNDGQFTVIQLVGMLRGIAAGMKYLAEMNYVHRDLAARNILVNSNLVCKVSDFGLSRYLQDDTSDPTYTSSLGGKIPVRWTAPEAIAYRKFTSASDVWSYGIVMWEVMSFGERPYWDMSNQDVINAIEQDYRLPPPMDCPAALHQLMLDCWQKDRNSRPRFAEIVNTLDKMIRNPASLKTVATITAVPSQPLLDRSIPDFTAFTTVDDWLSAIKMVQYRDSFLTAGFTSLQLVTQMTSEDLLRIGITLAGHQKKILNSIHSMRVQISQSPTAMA

MHCC97L = test: cells; settings: Homo sapiens, 72 h, read-out: IC50 (μM) ± SD
Experimental: as §1

MHCC97H = test: cells; settings: Homo sapiens, 72 h, read-out: IC50 (μM) ± SD
Experimental: as §1

[19] = Body weight in liver orthotopic mouse model; type: in vivo, mice

SMILES: Cc1ccccc1NS(=O)(=O)c1ccc2c(c1)/C(=C/c1nc3ccccc3[nH]1)C(=O)N2 [Indo5, 3-(1H-benzimidazol-2-methylene)-5-(2-methylphenylaminosulfo)-2-indolone]
- mouse body weights [1]: almost unchanged
- HGF-induced c-Met signaling pathway activation (c-Met signaling pathway): dramatically suppressed
- effect on cell proliferation (HepG2 cells [2]): weak inhibitory effect
- HGF-induced vasculature formation in vivo [3]: dramatically blocked
- IC50 (EPHA1): > 10 µM
- BDNF-induced cell migration (HepG2 cells [4]): suppressed
- IC50 (InsR): > 10 µM
- HCC metastasis in lung (HCC metastasis in lung): dramatic decrease
- IC50 (Ba/F3-Tpr-Met cells [5]): 0.618 µM
- apoptosis in tumor tissues (TUNEL staining) [6]: increased apoptosis
- half-life (Half-life in plasma): 5 min
- IC50 [7]: > 30 µM
- cytotoxicity (mouse hepatocytes; 0.5 μM Indo5, 72 h, data not shown): no cytotoxicity was observed
- HGF-induced cell proliferation (mouse hepatocytes; mouse hepatocytes, HGF 20 ng/ml 48 h, MTS): dose-dependently inhibited
- HGF-induced cell migration (HepG2 cells [8]): significantly suppressed
- effect on cell proliferation (wild-type Ba/F3 cells): no obvious effect
- IC50 [9]: 1.11 to 1.87 µM
- xenograft tumor growth (SK-N-SH xenograft): dose-dependent inhibitory effect
- inhibition rate (tumor weight) [10]: 65.2%
- BDNF-induced growth (Ba/F3-TrkB cells): inhibited
- NGF-induced TrkA signaling (TrkA signaling): almost completely inhibited
- IC50 (RET): > 10 µM
- IC50 (EGFR(T790,L858R)): > 10 µM
- effect on cell proliferation (MDCK cells [11]): No obvious effect
- IC50 [12]: 2.98 to 9.19 µM
- BDNF-induced TrkB signaling (TrkB signaling): decreased
- activation of EGF receptor-mediated signaling pathway [13]: no effect
- IC50 (IGF1R): > 10 µM
- IC50 (AXL): > 10 µM
- IC50 (C-KIT): > 10 µM
- HGF-stimulated cell scattering (MDCK cells [14]): blocked
- activation of VEGF receptor-mediated signaling pathway [15]: no effect
- cell apoptosis (Ba/F3-Tpr-Met cells [16]): markedly induced cell apoptosis
- xenograft tumor growth (SMMC-7721 xenograft): dose-dependent inhibitory effect
- IC50 (FGFR1): > 10 µM
- IC50 (FLT1): > 10 µM
- IC50 (SMMC-7721): 3.598 ± 0.022 µM
- IC50 (A549): 1.62 ± 0.008 µM
- IC50 (MRC-5): > 100 µM
- IC50 (L02): 32.52 ± 0.075 µM
- IC50 (NCI-H460): 9.185 ± 0.035 µM
- IC50 (HCC-LM3): 1.873 ± 0.012 µM
- IC50 (BEL-7402): 5.605 ± 0.017 µM
- IC50 (SK-N-SH): 2.982 ± 0.019 µM
- survival rate ([17]; 24 mg/kg Indo5 once daily by oral gavage): 40%
- overall survival rate ([17]; 48 mg/kg Indo5 once daily by oral gavage): 77.7%
- rate of tumor growth inhibition ([18]; orthotopic HepG2, 8 mg/kg intraperitoneally once daily for 3 weeks): approximately 49%
- rate of tumor growth inhibition ([18]; orthotopic HepG2, 16 mg/kg intraperitoneally once daily for 3 weeks): 61.2%
- overall health of the animals ([18]; orthotopic HepG2 model, Indo5 vs control, data not shown): not adversely affected
- IC50 (PDGFRα): > 10 µM
- IC50 (EGFR): > 10 µM
- IC50 (C-KIT(v654A)): > 10 µM
- tumor cells in liver tissue (histological examination) (orthotopic tumors): no obvious tumor cells
- IC50 (Ephb1): > 10 µM
- IC50 (MHCC97L): 1.28 ± 0.016 µM
- IC50 (MHCC97H): 1.11 ± 0.018 µM
- body weight change ([19]; liver orthotopic mouse model, Indo5 up to highest dose (48 mg/kg), 48 mg/kg): no obvious weight changes; also recorded: not associated with loss of body weight

SMILES: CNC(=O)c1cc(Oc2ccc(NC(=O)Nc3ccc(Cl)c(C(F)(F)F)c3)cc2)ccn1 [Sorafenib, reference compound]
- survival rate ([17]; 50 mg/kg Sorafenib once daily by oral gavage): 44%
- body weight loss ([19]; sorafenib treatment, mice): up to 10%
